In brackets after ≈: the same amount, converted by molar mass.

For data set [1], the system named is Rattus norvegicus.
In data set [2] the test system is Aphidius rhopalosiphi. As to the kind of experiment: LR50; higher = less toxic. To be noted: acute; duration: 48 hours; mortality.
The test system of data set [3] is Typhlodromus pyri. Put plainly: LR50; higher = less toxic. The note with it: acute; duration: 48 hours; mortality.
For data set [4], the system named is Cyprinus carpio. The note with it: acute; duration: 96 hours; mortality.
The subject of data set [5] is Anas platyrhynchos. The note with it: oral, mortality.
For data set [6], the system named is Pimephales promelas. To be noted: chronic/long-term; duration: 32 days; growth.
For data set [7], the system named is Apis mellifera. The note with it: acute; duration: 24 hours; oral; unspecified; mortality.
In data set [8] the test system is Daphnia magna. To be noted: chronic/long-term; duration: 21 days; mortality.
In data set [9] the test system is Tagia sp. The note with it: acute; duration: 14 days; mortality.
Data set [10] concerns Neomysis kadiakensis. To be noted: chronic/long-term; duration: 28 days; reproduction.
Data set [11] concerns Colinus virginianus. To be noted: acute, oral, mortality.
Data set [12] relates to Mus musculus. To be noted: acute; oral; mortality.

One may read the NOAEL as the highest tested level that showed no adverse finding. For the compound `O=c1ccc(C(F)(F)F)c[nH]1` [5-(Trifluoromethyl)pyridin-2(1H)-one], the NOAEL in [1] (developmental, development) was determined as 60 mg/kg-day.

With `CCCCOC(=O)[C@@H](C)Oc1ccc(Oc2ccc(C(F)(F)F)cn2)cc1` [Fluazifop-P-butyl], the LR50 was 177 g/ha in [2] and 5.6 g/ha in data set [3]. For the same compound, the LC50 in data set [4] is 1.31 µg/mL (≈ 3.42 µM); in data set [5] (short-term, feed), greater than 942 mg/kg-day; in data set [9] it was greater than 1000 mg/kg; in [11] (diet), greater than 1070 mg/kg-day. The NOAEL in [1] (chronic, duration: 2 years) turned out to be 1 mg/kg-day; in data set [1] (developmental, development), 2 mg/kg-day; in data set [1] (reproduction developmental, reproduction), 6.72 mg/kg-day; in data set [1] (subchronic, duration: 90 days, oral), 0.9 mg/kg-day. In addition, the LD50 in [5] (acute, unspecified) is greater than 3960 mg/kg-day; in [7], greater than 200 µg/piece; in data set [11], greater than 2000 mg/kg-day; in data set [12], greater than 2000 mg/kg-day. Moreover, the NOEC in data set [6] is 0.077 mg/L; in data set [8], 0.25 mg/L; in data set [10], 0.0477 mg/L.

The compound `CC(Oc1ccc(Oc2ccc(C(F)(F)F)cn2)cc1)C(=O)O` (centres undefined) [Fluazifop] returned an NOAEL in [1] (chronic, duration: 2 years) of 1 mg/kg-day.

The values above are taken from EPA's ToxValDB 9.5 (doi:10.2903/j.efsa.2012.2945).
